Reference: publication PMC8151276, “An Integrated Approach toward NanoBRET Tracers for Analysis of GPCR Ligand Engagement” (Molecules, 2021)

Tests used:
Type in all cases: binding
ADRB1 = target: T1, ADRB1 (Homo sapiens, UniProt P08588); assay: NanoBRET screen HiBiT-ADRB1 in HEK293
T1 construct: purchased Promega (in-house HiBiT-GPCR construct library, NanoBRET)

FZD10 = target: T2, FZD10 (Homo sapiens, UniProt Q9ULW2); assay: NanoBRET screen HiBiT-FZD10 in HEK293
T2 construct: purchased Promega (in-house HiBiT-GPCR construct library, NanoBRET)
T2 sequence (Q9ULW2 21-581): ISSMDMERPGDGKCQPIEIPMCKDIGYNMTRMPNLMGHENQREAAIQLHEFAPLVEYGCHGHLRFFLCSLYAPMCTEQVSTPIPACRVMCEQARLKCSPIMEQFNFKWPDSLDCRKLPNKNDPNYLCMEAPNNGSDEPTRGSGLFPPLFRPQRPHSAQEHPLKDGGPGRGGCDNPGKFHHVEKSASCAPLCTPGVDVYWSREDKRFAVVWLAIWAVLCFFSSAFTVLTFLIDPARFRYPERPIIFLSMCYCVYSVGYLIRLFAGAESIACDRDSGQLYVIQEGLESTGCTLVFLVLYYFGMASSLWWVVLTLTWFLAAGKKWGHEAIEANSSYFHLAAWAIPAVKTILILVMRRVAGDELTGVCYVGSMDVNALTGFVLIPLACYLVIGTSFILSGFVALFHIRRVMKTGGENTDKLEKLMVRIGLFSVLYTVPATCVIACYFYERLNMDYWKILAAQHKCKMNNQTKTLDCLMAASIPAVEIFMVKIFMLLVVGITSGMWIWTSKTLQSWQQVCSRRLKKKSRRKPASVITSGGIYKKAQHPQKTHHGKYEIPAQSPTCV
Protocol: (§1) Each tracer candidate was screened across the entire library of HiBiT-GPCR constructs using NanoBRET as the detection modality. As depicted in Figure 4A, the specificity of interactions was evaluated through decrease in BRET due to competitive displacement of a bound tracer by excess parental compound. Each tracer was analyzed for binding to each HiBiT-GPCR fusion in the absence and in the presence of competing parental compound. Briefly, HEK293 cells were transfected with HiBiT-GPCR constructs diluted into promoterless DNA to reduce expression and maximize translocation to the cell surface. Each tracer candidate was then screened at concentrations of 1 μM and 0.1 μM across cells expressing these fusions. Cells were treated for 1.5 h with tracer either alone or in the presence of 20 μM competing parental compound (i.e., control). BRET was measured upon addition of purified LgBiT and subsequent complementation with HiBiT genetically fused to a GPCR. The specificity of interactions was assessed through a decrease in BRET signal due to competitive displacement of the bound tracer. To further gauge the robustness of these interactions, the fold response over the control (i.e., BRETtracer/BRETcontrol) was calculated. We chose a 1.5-fold response, which translates to ≥7-fold signal over noise as the minimal threshold required to score an interaction as positive.
(§2) HiBiT-GPCR DNA constructs were diluted in 10 mM Tris pH 8 to a final concentration of 0.01 μg/μL, arrayed in 96-well plates and stored at −20 °C. For transfection, HEK293 cells were suspended in Opti-MEM (without phenol red) supplemented with 2% fetal bovine serum (Seradigm) and 100 units/mL penicillin–streptomycin (Gibco) at a final concentration of 220,000 cells/mL and dispensed into white 96-well plates at 90 μL/well. Subsequent transfections and screens were carried using an Agilent Bravo Automated Liquid Handling Platform. First, the 96-well HiBiT DNA arrays were diluted 25-fold in Opti-MEM (without serum or phenol red) to a final concentration of 0.0004 μg/μL and 20 μL of the diluted DNAs were transferred into new 96-well plates. Next, promoterless carrier DNA (1 μg/μL) was diluted 25-fold (0.04 μg/μL) and then dispensed into the diluted arrays at 20 μL/well. Following brief mixing, Viafect transfection reagent (Promega) diluted 16-fold into Opti-MEM was dispensed into the plates at 40 μL/well. After mixing by pipetting, plates were incubated for 10 min on the pipetting station deck. The DNA-transfection reagent complexes were then added to plates containing cells. To facilitate the screen, 10 μL of DNA-transfection reagent complexes were added in duplicates to the top 4 and bottom 4 rows, resulting in two identical 48-well arrays per plate. Plates with transfected cells were incubated for 18–20 h at 37 °C/5% CO2. A screen of each tracer across the entire library using two different concentrations requires duplicate plates of transfected cells. Depending on the number of tracers being screened, transfections can be scaled up using the same ratios. The next day, for each tracer, four 20× screening solutions in tracer dilution buffer (Promega) were prepared: two duplicates at final concentration of 20 μM and two duplicates at a final concentration of 2 μM. […] The four resulting solutions were diluted 4-fold in Opti-MEM without serum or phenol red to generate 5× solutions (5 µM and 0.5 µM tracer +/− 100 μM competing compound). To screen the library, a BioTek MultiFlo FX liquid dispenser was used to dispense 22.5 µL of tracer solution to the top 4 rows and 22.5 µL tracer + competing compound solution to the 4 bottom rows. Plates were briefly mixed on an orbital shaker and incubated for 1.5 h at room temperature. […] Plates were briefly mixed on an orbital shaker and incubated for 15 min to allow complementation.

MC2R = target: T3, MC2R (Homo sapiens, UniProt Q01718); assay: NanoBRET screen HiBiT-MC2R in HEK293
T3 construct: purchased Promega (in-house HiBiT-GPCR construct library, NanoBRET)
T3 sequence (Q01718 whole entry): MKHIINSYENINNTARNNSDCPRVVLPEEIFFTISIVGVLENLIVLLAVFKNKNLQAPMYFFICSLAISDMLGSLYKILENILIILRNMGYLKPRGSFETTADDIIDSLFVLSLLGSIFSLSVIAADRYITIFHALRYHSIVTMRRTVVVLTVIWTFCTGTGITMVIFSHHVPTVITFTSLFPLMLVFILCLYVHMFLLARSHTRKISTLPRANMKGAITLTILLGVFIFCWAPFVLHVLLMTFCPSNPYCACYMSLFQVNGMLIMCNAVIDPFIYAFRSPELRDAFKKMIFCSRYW
Protocol: as §1, §2

T1 sequence (P08588 whole entry): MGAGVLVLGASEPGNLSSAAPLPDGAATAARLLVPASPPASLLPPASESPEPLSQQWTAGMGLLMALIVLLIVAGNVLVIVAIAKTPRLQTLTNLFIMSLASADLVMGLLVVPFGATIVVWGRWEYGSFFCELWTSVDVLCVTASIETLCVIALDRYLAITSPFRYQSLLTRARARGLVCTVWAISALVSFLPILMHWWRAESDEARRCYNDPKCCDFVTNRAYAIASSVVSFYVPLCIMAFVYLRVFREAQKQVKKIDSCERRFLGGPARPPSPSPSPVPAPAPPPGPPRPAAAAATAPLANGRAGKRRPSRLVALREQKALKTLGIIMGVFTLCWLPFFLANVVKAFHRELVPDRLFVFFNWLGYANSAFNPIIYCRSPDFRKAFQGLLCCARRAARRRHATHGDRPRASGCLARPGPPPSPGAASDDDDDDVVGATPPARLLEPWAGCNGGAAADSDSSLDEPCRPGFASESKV

Structure (SMILES)	NanoBRET Fold Response (ADRB1; ADRB1, tracer 0.1μM)	NanoBRET Fold Response (ADRB1; ADRB1, tracer 1μM)	NanoBRET Fold Response (FZD10; FZD10, tracer 0.1μM)	NanoBRET Fold Response (FZD10; FZD10, tracer 1μM)	NanoBRET Fold Response (MC2R; MC2R, tracer 0.1μM)	NanoBRET Fold Response (MC2R; MC2R, tracer 1μM)	NanoBRET Fold Response (ADRB1; ADRB1, 0.1μM tracer)	NanoBRET Fold Response (ADRB1; ADRB1, 1μM tracer)	NanoBRET Fold Response (FZD10; FZD10, 0.1μM tracer)	NanoBRET Fold Response (FZD10; FZD10, 1μM tracer)	NanoBRET Fold Response (MC2R; MC2R, 0.1μM tracer)	NanoBRET Fold Response (MC2R; MC2R, 1μM tracer)	also measured
CN(C)CCC=C1c2ccccc2CCc2ccc(C(=O)NCCNC(=O)CCOCCOCCOCCOCCNC(=O)CCc3ccc4n3[B-](F)(F)[N+]3=C(c5ccc[nH]5)C=CC3=C4)cc21 [Amitriptyline-b-2-NB590]													NanoBRET Fold Response (ADRB1; tracer at 1μM, listed as amitriptyline-b-2-NB590): 0.96; NanoBRET Fold Response (FZD10; tracer at 0.1μM, listed as amitriptyline-b-2-NB590): 0.18; NanoBRET Fold Response (FZD10; tracer at 1μM): 0.99; NanoBRET Fold Response (MC2R; tracer at 0.1μM): 1.00; NanoBRET Fold Response (MC2R; tracer at 1μM): 1.02
O=C(CCc1ccc2n1[B-](F)(F)[N+]1=C(c3ccc[nH]3)C=CC1=C2)NCCOCCOCCNC(=O)OCCOCCN1CCN(C2=Nc3ccccc3Sc3ccccc32)CC1 [Quetiapine-a-2-NB590]	1.00	0.91	0.92	0.80	0.98	0.95							
Cc1cc2c(s1)Nc1ccccc1N=C2N1CCN(CCCNC(=O)CCOCCOCCOCCOCCNC(=O)CCc2ccc3n2[B-](F)(F)[N+]2=C(c4ccc[nH]4)C=CC2=C3)CC1 [Olanzapine-a-2-NB590]	1.01	0.97	0.98	0.99	0.98	1.21							
CN1CCN(C2=Nc3cc(Cl)ccc3Nc3ccc(CNC(=O)CCOCCOCCOCCOCCNC(=O)CCc4ccc5n4[B-](F)(F)[N+]4=C(c6ccc[nH]6)C=CC4=C5)cc32)CC1 [Clozapine-b-2-NB590]							0.99	1.02	1.01	1.08	1.02	1.00	
COc1ccc2c(n1)c(CCNC(C)=O)cn2CCNC(=O)CCc1ccc2n1[B-](F)(F)[N+]1=C(c3ccc[nH]3)C=CC1=C2 [Azamelatonin-1-NB590]													NanoBRET Fold Response (ADRB1; 0.1μM tracer): 0.98; NanoBRET Fold Response (ADRB1; 1μM tracer): 0.96; NanoBRET Fold Response (FZD10; 0.1μM tracer): 0.93; NanoBRET Fold Response (FZD10; 1μM tracer): 0.93; NanoBRET Fold Response (MC2R; 0.1μM tracer): 0.89; NanoBRET Fold Response (MC2R; 1μM tracer): 1.03
O=C(CCOCCOCCOCCOCCNC(=O)CCc1ccc2n1[B-](F)(F)[N+]1=C(c3ccc[nH]3)C=CC1=C2)NCCCN1CCN(C2=Nc3cc(Cl)ccc3Nc3ccccc32)CC1 [Clozapine-a-2-NB590]							0.95	0.94	1.01	0.99	0.97	0.97	
